Laboratory results taken from patent US12054498B2, “Heteroaromatic macrocyclic ether chemotherapeutic agents” (Nuvalent, Inc., priority 2020, dated 2024).

Columns and labels:
Ba/F3 cells TPM3-TRKA = target: T1, Ba/F3 cells TPM3-TRKA (Homo sapiens, UniProt P04629); assay: Ba/F3 cell proliferation assay, TPM3-TRKA; assay type: cell-based; conditions: 72 hours, CellTiter-Glo, read-out: TPM3-NTRK1-wt IC50
T1 construct: host or cells: Ba/F3 (RIKEN), retroviral pMSCV-puro; the other entry of the earlier key: TPM3 (P06753, Tropomyosin alpha-3 chain)
T1 sequence (P04629 510-796 limits assumed): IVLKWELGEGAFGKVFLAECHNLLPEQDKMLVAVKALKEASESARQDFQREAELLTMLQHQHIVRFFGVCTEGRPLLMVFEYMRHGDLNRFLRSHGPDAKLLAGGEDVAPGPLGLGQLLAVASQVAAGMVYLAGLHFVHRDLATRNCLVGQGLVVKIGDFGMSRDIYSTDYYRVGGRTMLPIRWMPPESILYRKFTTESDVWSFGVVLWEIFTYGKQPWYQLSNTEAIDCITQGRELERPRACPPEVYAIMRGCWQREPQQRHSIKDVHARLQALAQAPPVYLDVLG
In short: (§1)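 Luminescence from CellTiter-Glo after 72 hours of compound exposure measured viability of IL-3-independent Ba/F3 cells carrying the retrovirally introduced fusion. Cells were plated at 1,000 per well one day before 3-fold serial dilutions were added. IC50 values came from four-parameter logistic regression.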

ROS1-wt = target: T2, ROS1-wt (Homo sapiens, UniProt P08922); assay: Biochemical kinase assay, ROS1-wt kinase domain; conditions: apparent inhibitory constant, Morrison equation; ATP 2 mM in substrate solution; read-out: ROS1-wt Ki^app
T2 construct: purchased Carna 08-163
T2 sequence (P08922 1945-2222 limits assumed): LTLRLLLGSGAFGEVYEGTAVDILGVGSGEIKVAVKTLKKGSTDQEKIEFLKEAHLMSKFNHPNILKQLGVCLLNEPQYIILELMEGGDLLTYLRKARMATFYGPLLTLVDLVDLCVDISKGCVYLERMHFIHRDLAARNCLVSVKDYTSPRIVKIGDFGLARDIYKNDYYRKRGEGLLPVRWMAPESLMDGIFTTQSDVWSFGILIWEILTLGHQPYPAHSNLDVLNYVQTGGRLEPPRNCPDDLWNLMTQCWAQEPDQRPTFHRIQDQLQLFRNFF
In short: (§2)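 Compounds, as 100-fold DMSO stocks, were dispensed first, then substrate mix was added (ATP 2 mM, AQT0101 26 μM, in 50 mM HEPES pH 7.5/10 mM MgCl2). Reactions ran at 30 °C with fluorescence logged every 2 min over 120 min. Apparent inhibition constants came from fitting rates to Morrison's tight-binding equation.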

[1] = target: T3, Ba/F3 cells CD74-ROS1 G2032R (Homo sapiens, UniProt P08922, G2032R); assay: Ba/F3 cell proliferation assay, CD74-ROS1 G2032R; assay type: cell-based; conditions: 72 hours, CellTiter-Glo
T3 construct: fusion of the C-terminus of ROS1 with the N-terminus of various partner proteins; host or cells: Ba/F3 (RIKEN), retroviral pMSCV-puro; the other entry of the earlier key: CD74 (P04233, HLA class II histocompatibility antigen gamma chain)
T3 sequence (P08922 1883-2347 G2032R limits assumed): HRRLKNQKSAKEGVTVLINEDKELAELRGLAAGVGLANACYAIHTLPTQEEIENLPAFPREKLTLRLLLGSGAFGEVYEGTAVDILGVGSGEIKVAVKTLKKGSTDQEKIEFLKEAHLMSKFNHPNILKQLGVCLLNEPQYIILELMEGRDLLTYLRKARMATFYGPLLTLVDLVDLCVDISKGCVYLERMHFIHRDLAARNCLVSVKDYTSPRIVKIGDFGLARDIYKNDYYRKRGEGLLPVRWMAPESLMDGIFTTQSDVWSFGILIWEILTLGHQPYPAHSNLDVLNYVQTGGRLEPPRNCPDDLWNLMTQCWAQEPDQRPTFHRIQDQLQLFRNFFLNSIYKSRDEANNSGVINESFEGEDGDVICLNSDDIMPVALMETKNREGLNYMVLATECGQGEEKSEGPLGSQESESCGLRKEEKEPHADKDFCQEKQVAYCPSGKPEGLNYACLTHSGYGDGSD
In short: (§3)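 Viability read by CellTiter-Glo luminescence after 72 h exposure to 3-fold serial compound dilutions, four-parameter logistic fitting giving IC50.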

ROS1-G2032R = target: T4, ROS1-G2032R (Homo sapiens, UniProt P08922, G2032R); assay: Biochemical kinase assay, ROS1-G2032R kinase domain; conditions: apparent inhibitory constant, Morrison equation; ATP 2 mM in substrate solution; read-out: ROS1-G2032R Ki^app
T4 construct: purchased SignalChem R14-12BG
T4 sequence (P08922 1945-2222 G2032R limits assumed): as the sequence (P08922 1945-2222 limits assumed) above, with G88R counted along it
In short: as §2

ALK-wt = target: T5, ALK-wt (Homo sapiens, UniProt Q9UM73); assay: Biochemical kinase assay, ALK-wt kinase domain; conditions: apparent inhibitory constant, Morrison equation; ATP 2 mM in substrate solution; read-out: ALK-wt Ki^app
T5 construct: purchased Carna 08-518
T5 sequence (Q9UM73 1116-1392 limits assumed): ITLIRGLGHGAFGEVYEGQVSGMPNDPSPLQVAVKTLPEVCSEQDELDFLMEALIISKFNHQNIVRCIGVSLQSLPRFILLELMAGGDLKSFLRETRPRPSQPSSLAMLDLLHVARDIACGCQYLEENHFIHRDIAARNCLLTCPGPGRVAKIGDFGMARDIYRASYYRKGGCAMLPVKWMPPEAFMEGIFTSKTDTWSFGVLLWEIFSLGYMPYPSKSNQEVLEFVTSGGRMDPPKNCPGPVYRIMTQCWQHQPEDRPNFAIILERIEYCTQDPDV
In short: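 Apparent Ki values come from fitting initial reaction rates against inhibitor concentration to the Morrison equation. Rates were taken from the linear phase of fluorogenic substrate phosphorylation (AQT0101 for ALK and ROS1, AQT0104 for TRKA; 26 μM in substrate solution with 2 mM ATP), monitored at 485 nm over 120 min at 30° C.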

[2] = target: T6, Ba/F3 cells EML4-ALK wt (variant 1) (Homo sapiens, UniProt Q9UM73); assay: Ba/F3 cell proliferation assay, EML4-ALK wt (variant 1); assay type: cell-based; conditions: 72 hours, CellTiter-Glo
T6 construct: echinoderm microtubule-associated protein-like 4 (EML4) gene and the ALK tyrosine kinase domain; host or cells: Ba/F3 (RIKEN), retroviral pMSCV-puro; the other entry of the earlier key: EML4 (Q9HC35, Echinoderm microtubule-associated protein-like 4)
T6 sequence (Q9UM73 with tags, fused parts or gaps): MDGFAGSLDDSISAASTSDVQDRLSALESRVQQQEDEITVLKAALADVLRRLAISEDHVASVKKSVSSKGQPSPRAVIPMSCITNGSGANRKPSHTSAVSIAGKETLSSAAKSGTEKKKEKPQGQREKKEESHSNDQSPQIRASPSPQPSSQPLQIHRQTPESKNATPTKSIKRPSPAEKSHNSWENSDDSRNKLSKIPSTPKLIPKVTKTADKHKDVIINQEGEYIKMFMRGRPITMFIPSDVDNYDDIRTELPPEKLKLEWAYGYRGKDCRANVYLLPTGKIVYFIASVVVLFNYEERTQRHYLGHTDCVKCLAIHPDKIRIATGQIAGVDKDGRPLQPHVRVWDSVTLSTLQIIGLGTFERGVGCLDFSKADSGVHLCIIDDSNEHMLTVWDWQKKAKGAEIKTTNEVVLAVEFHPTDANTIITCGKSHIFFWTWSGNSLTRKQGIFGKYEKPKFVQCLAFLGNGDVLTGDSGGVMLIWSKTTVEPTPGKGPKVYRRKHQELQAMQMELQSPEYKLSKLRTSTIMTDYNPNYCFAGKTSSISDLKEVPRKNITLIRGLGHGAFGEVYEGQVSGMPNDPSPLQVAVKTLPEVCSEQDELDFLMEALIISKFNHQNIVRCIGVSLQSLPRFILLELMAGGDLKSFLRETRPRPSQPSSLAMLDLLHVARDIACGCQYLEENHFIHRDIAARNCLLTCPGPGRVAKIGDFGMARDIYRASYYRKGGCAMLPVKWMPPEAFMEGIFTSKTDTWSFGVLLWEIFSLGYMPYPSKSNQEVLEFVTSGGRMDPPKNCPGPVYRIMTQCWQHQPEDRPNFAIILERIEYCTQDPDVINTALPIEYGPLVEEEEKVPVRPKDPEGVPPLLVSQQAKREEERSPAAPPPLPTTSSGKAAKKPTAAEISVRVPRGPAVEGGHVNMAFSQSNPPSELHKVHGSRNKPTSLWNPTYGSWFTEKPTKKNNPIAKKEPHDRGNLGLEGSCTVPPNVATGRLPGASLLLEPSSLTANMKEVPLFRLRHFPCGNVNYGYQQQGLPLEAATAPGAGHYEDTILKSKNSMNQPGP
In short: as §1

ALK L1196M/G1202R = target: T7, ALK L1196M/G1202R (Homo sapiens, UniProt Q9UM73, G1202R/L1196M); assay: Biochemical kinase assay, ALK L1196M/G1202R kinase domain; conditions: apparent inhibitory constant, Morrison equation; ATP 2 mM in substrate solution; read-out: ALK-L1196M-G1202R Ki^app
T7 construct: purchased SignalChem A19-12NG
T7 sequence (Q9UM73 1116-1392 L1196M/G1202R limits assumed): as the sequence (Q9UM73 1116-1392 limits assumed) above, with L81M, G87R counted along it
In short: (§4)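 Kinase domains (in kinase solution: ROS1-G2032R 0.5 nM, ROS1-wt 0.6 nM, TRKA 1 nM, ALK L1196M/G1202R 3 nM) were mixed with compound and a substrate solution of 2 mM ATP plus 26 μM fluorogenic AQT0101 (ALK, ROS1) or AQT0104 (TRKA) in HEPES pH 7.5/MgCl2. Fluorescence was followed for 120 min at 30° C; Ki^app was obtained by Morrison fit of initial rates.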

[3] = system: TPM3-NTRK1-wt IC50 / primary target IC50 (e.g. CD74-ROS1-wt); assay: TRKA selectivity in Ba/F3 cells (TRKA potency divided by primary target potency); assay type: cell-based; conditions: for TPM3-NTRK1-wt/CD74-ROS1-G2032R selectivity ratio: TRKA potency / CD74-ROS1-G2032R potency; for TPM3-NTRK1-wt/CD74-ROS1-wt selectivity ratio: TRKA potency / CD74-ROS1-wt potency; for TPM3-NTRK1-wt/EML4-ALK-L1196M-G1202R selectivity ratio: TRKA potency / EML4-ALK-L1196M-G1202R potency; for TPM3-NTRK1-wt/EML4-ALK-wt selectivity ratio: TRKA potency / EML4-ALK-wt potency
Procedure: TRKA selectivity was calculated by dividing a compound's TRKA potency by its primary target potency (e.g. TPM3-NTRK1-wt IC50/CD74-ROS1-wt IC50). Compound selectivity can be interpreted by binning ratio values: bin A for very high selectivity, ratio >30-fold; bin B for high selectivity, ratio >10-fold; bin C for moderate selectivity, ratio ≥1; and bin D for low selectivity, ratio <1. […] (nd=not determined).

[4] = target: T8, Ba/F3 cells CD74-ROS1 wild-type (wt) (Homo sapiens, UniProt P08922); assay: Ba/F3 cell proliferation assay, CD74-ROS1 wild-type; assay type: cell-based; conditions: 72 hours, CellTiter-Glo
T8 construct: fusion of the C-terminus of ROS1 with the N-terminus of various partner proteins; host or cells: Ba/F3 (RIKEN), retroviral pMSCV-puro; the other entry of the earlier key: CD74 (P04233, HLA class II histocompatibility antigen gamma chain)
T8 sequence (P08922 1883-2347 limits assumed): as the sequence (P08922 1883-2347 G2032R limits assumed) above, with R150G counted along it
In short: as §3

[5] = target: T9, Ba/F3 cells EML4-ALK L1196M/G1202R (variant 1) (Homo sapiens, UniProt Q9UM73, G1202R/L1196M); assay: Ba/F3 cell proliferation assay, EML4-ALK L1196M/G1202R (variant 1); assay type: cell-based; conditions: 72 hours, CellTiter-Glo
T9 construct: echinoderm microtubule-associated protein-like 4 (EML4) gene and the ALK tyrosine kinase domain; host or cells: Ba/F3 (RIKEN), retroviral pMSCV-puro; the other entry of the earlier key: EML4 (Q9HC35, Echinoderm microtubule-associated protein-like 4)
T9 sequence (Q9UM73 with tags, fused parts or gaps L1196M/G1202R): as the sequence (Q9UM73 with tags, fused parts or gaps) above, with L635M, G641R counted along it
In short: as §1

TRKA-wt = target: T10, TRKA-wt (Homo sapiens, UniProt P04629); assay: Biochemical kinase assay, TRKA-wt kinase domain; conditions: apparent inhibitory constant, Morrison equation; ATP 2 mM in substrate solution; read-out: TRKA-wt Ki^app
T10 construct: or TRKA-wt (1 nM, BPS Bio, 40280) kinase domains in buffer; purchased BPS Bio 40280
T10 sequence (P04629 510-781 limits assumed): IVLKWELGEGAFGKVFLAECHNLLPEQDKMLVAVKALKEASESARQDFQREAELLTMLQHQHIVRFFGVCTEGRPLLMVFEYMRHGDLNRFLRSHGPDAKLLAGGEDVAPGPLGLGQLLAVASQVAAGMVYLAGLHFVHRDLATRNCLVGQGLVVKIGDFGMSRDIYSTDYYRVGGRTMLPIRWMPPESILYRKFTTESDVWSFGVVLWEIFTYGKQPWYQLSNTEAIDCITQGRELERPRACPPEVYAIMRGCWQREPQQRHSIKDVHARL
In short: as §4

Compound | IC50 (Ba/F3 cells TPM3-TRKA) | Ki (ROS1-wt) | IC50 [1] | Ki (ROS1-G2032R) | Ki (ALK-wt) | IC50 [2] | Ki (ALK L1196M/G1202R) | IC50 [4] | IC50 [5] | Ki (TRKA-wt) | TPM3-NTRK1-wt/CD74-ROS1-G2032R selectivity ratio [3] | TPM3-NTRK1-wt/CD74-ROS1-wt selectivity ratio [3] | TPM3-NTRK1-wt/EML4-ALK-L1196M-G1202R selectivity ratio [3] | TPM3-NTRK1-wt/EML4-ALK-wt selectivity ratio [3]
C[C@H]1Oc2cc(cnc2N)-c2c(cnn2C2CC2)Cc2nn(C)nc2-c2ccc(F)cc21 [Example 14, (19R)-3-cyclopropyl-16-fluoro-10,19-dimethyl-20-oxa-3,4,9,10,11,23-hexaazapentacyclo[19.3.1.0^2,^6.0^8,^12.0^13,^18]pentacosa-1(24),2(6),4,8,11,13,15,17,21(25),22-decaen-22-amine] | 50 to 500 nM | < 50 nM | 0.1 to 50 nM | < 50 nM | < 50 nM | 0.1 to 50 nM | < 50 nM | 0.1 to 50 nM | 50 to 500 nM | 50 to 500 nM | A (bin A for very high selectivity, ratio >30-fold) | A (bin A for very high selectivity, ratio >30-fold) | C (bin C for moderate selectivity, ratio ≥1) | A (bin A for very high selectivity, ratio >30-fold)
CCn1ncc2c1-c1cnc(N)c(c1)O[C@H](C)c1cc(F)ccc1-c1cc(F)nn1C2 [Example 15, (19R)-3-ethyl-10,16-difluoro-19-methyl-20-oxa-3,4,8,9,23-pentaazapentacyclo[19.3.1.0^2,^6.0^8,^12.0^13,^18]pentacosa-1(24),2(6),4,9,11,13,15,17,21(25),22-decaen-22-amine] | 50 to 500 nM | < 50 nM | 0.1 to 50 nM | < 50 nM | < 50 nM | 0.1 to 50 nM | < 50 nM | 0.1 to 50 nM | 0.1 to 50 nM | 50 to 500 nM | A (bin A for very high selectivity, ratio >30-fold) | A (bin A for very high selectivity, ratio >30-fold) | C (bin C for moderate selectivity, ratio ≥1) | A (bin A for very high selectivity, ratio >30-fold)
CCn1ncc2c1-c1cnc(N)c(c1)O[C@H](C)c1cc(F)ccc1-c1cc(Cl)nn1C2 [Example 16, (19R)-10-chloro-3-ethyl-16-fluoro-19-methyl-20-oxa-3,4,8,9,23-pentaazapentacyclo[19.3.1.0^2,^6.0^8,^12.0^13,^18]pentacosa-1(24),2(6),4,9,11,13,15,17,21(25),22-decaen-22-amine] | 50 to 500 nM | < 50 nM | 0.1 to 50 nM | < 50 nM | < 50 nM | 0.1 to 50 nM | < 50 nM | 0.1 to 50 nM | 0.1 to 50 nM | < 50 nM | A (bin A for very high selectivity, ratio >30-fold) | A (bin A for very high selectivity, ratio >30-fold) | C (bin C for moderate selectivity, ratio ≥1) | B (bin B for high selectivity, ratio >10-fold)

Continued, in another order:

IC50 (Ba/F3 cells TPM3-TRKA) | Ki (ROS1-wt) | IC50 [1] | Ki (ROS1-G2032R) | Ki (ALK-wt) | IC50 [2] | Ki (ALK L1196M/G1202R) | IC50 [4] | IC50 [5] | Ki (TRKA-wt) | Compound | TPM3-NTRK1-wt/CD74-ROS1-G2032R selectivity ratio [3] | TPM3-NTRK1-wt/CD74-ROS1-wt selectivity ratio [3] | TPM3-NTRK1-wt/EML4-ALK-L1196M-G1202R selectivity ratio [3] | TPM3-NTRK1-wt/EML4-ALK-wt selectivity ratio [3]
> 500 nM | < 50 nM | 50 to 500 nM | 50 to 500 nM | < 50 nM | 50 to 500 nM | 50 to 500 nM | 0.1 to 50 nM | > 500 nM | > 500 nM | C[C@H]1Oc2cc(cnc2N)-c2c(C#N)ncn2Cc2ncncc2-c2ccc(F)cc21 [Example 18, (20R)-23-amino-17-fluoro-20-methyl-21-oxa-4,6,9,11,24-pentaazapentacyclo[20.3.1.0^2,^6.0^8,^13.0^14,^19]hexacosa-1(25),2,4,8(13),9,11,14,16,18,22(26),23-undecaene-3-carbonitrile] | A (bin A for very high selectivity, ratio >30-fold) | A (bin A for very high selectivity, ratio >30-fold) | C (bin C for moderate selectivity, ratio ≥1) | A (bin A for very high selectivity, ratio >30-fold)
> 500 nM | < 50 nM | 0.1 to 50 nM | < 50 nM | < 50 nM | 0.1 to 50 nM | < 50 nM | 0.1 to 50 nM | 0.1 to 50 nM | > 500 nM | C[C@H]1Oc2cc(cnc2N)-c2c(C#N)ncn2Cc2ncccc2-c2ccc(F)cc21 [Example 19, (20R)-23-amino-17-fluoro-20-methyl-21-oxa-4,6,9,24-tetraazapentacyclo[20.3.1.0^3,^6.0^8,^13.0^14,^19]hexacosa-1(25),2,4,8(13),9,11,14,16,18,22(26),23-undecaene-3-carbonitrile] | A (bin A for very high selectivity, ratio >30-fold) | A (bin A for very high selectivity, ratio >30-fold) | A (bin A for very high selectivity, ratio >30-fold) | A (bin A for very high selectivity, ratio >30-fold)
